Usually inhibition stands for the percentage by which the read-out fell short of the control.

Structures are written as SMILES.

We go through three molecules from patent US7022687B1, “Combination of loteprednol and antihistamines” (Asta Medica AG, priority 1999, dated 2006).

One series concerns TNFα release. The series can be described thus: LPS-induced TNFα release in diluted human blood (ELISA). The series is classed as cell-based. Here is the method:
In vitro, investigations on the influencing of the release of the proinflammatory cytokine TNFα in human blood of various donors diluted 1:5 were carried out. The stimulation was effected using lipopolysaccharide (LPS) from Salmonella abortus equi (10 μg/ml) over the course of 24 h at 37° C. and 5% CO2 in an incubator. The TNFα release was determined using an ELISA, based on antibodies from Pharmingen.
A general note: An ELISA detects its analyte on a solid surface through an enzyme-linked reagent.

The subject of series [1] is young domestic pigs actively sensitized with an antigen (extract from Ascaris suum). Description: Allergen-induced nasal secretion (rhinorrhea) in Ascaris-sensitized young domestic pigs. The settings on record: for Inhibition of nasal secretion: intranasal Ascaris allergen challenge, pigs. Format: in vivo. Here is the method: In vivo investigations were carried out on young domestic pigs actively sensitized with an antigen (extract from Ascaris suum). Three weeks later, they were exposed to allergen challenge, which was carried out by intranasal instillation of the Ascaris extract. This local intranasal allergen challenge leads to a very great increase in the nasal secretion (rhinorrhea). The amount of secretion was determined gravimetrically.

For series [2] the following is noted: cited from earlier work.

In the case of `CN1CCCC(n2nc(Cc3ccc(Cl)cc3)c3ccccc3c2=O)CC1` (stereo not drawn) [Azelastine], in the series with TNFα release (administered alone), the “LPS-induced TNFα release (in words)” value is recorded as “remains virtually unchanged”. In the series on TNFα release (azelastine 10 μmol/l, human blood diluted 1:5, LPS 10 μg/ml, 24 h), this molecule showed an inhibition at 10 µM of 2%. For the same molecule, the “Inhibition of nasal secretion” value in series [1] (azelastine 10 μg/nostril) came out at 15%. Further, the “Inhibition of the allergically induced nasal hypersecretion (in words)” value in series [1] (used alone at 10 or 20 μg/nostril) was “only marginal inhibition”.
For the molecule `CCOC(=O)O[C@]1(C(=O)OCCl)CC[C@H]2[C@@H]3CCC4=CC(=O)C=C[C@]4(C)[C@H]3[C@@H](O)C[C@@]21C` [Loteprednol etabonate], in series [2], the Water solubility entry is recorded as “virtually water-insoluble”.
`CCOC(=O)O[C@]1(C(=O)OCCl)CC[C@H]2[C@@H]3CCC4=CC(=O)C=C[C@]4(C)[C@H]3[C@@H](O)C[C@@]21C` [Loteprednol]: in the series on TNFα release (loteprednol 0.001 μmol/l, human blood diluted 1:5, LPS 10 μg/ml, 24 h), the inhibition at 0.001 µM was found to be 1%. The molecule further returned an inhibition at 0.01 µM in the series with TNFα release (loteprednol 0.01 μmol/l, human blood diluted 1:5, LPS 10 μg/ml, 24 h) of 2%. In addition, the inhibition at 0.03 µM in the series with TNFα release (loteprednol 0.03 μmol/l, human blood diluted 1:5, LPS 10 μg/ml, 24 h) was 8%. For the same molecule, in series [1] (loteprednol 20 μg/nostril), the “Inhibition of nasal secretion” value was 8%.
